Measurements taken from patent EP3725763A1, “MYOCARDIAL REGENERATION PROMOTING COMPOUNDS, PREPARATION METHOD THEREOF, PHARMACEUTICAL COMPOSITION, AND THEIR USE” (priority 2019, dated 2020).

experiment: MTT assay for cell viability testing; assay type: cell-based, rats; conditions: rat; H9C2 cells, 48 hours treatment at the concentrations of Table 3 (0.4 to 25 µg/ml); DMSO group = 100%; Figure 1
Description: 1.1: cell culture of H9C2 cell line
H9C2 cell line is a cardiac myoblast derived from the rats and is purchased from Food Industry Research and Development Institute, Taiwan. The culture medium is 90% (v/v) Dulbecco's modified Eagle's medium with 4 mM L-glutamine (Gibco™, Cat.12800017) adjusted to contain 4.5g/L glucose and 1.5g/L sodium bicarbonate (Sigma, Cat.S5761) and 10% (v/v) fetal bovine serum (Gibco™, Cat.10437028). Incubate at 37°C in a 5% (v/v) CO2 in air atmosphere.
1.2: MTT assay for cell viability testing
In order to find out the feasible concentration of compounds without cytotoxicity, cells was cultured to 90% confluency and cells were seeded in a 24-well plate at a concentration of 1.5*10^4 cell/well. […] After washing with PBS buffer (phosphate buffered saline), 0.5 mg/ ml of MTT (Thiazolyl Blue Tetrazolium Bromide; Sigma, Cat.M2128) was added and incubate the 24-well plate at 37°C for 4 hours. […] Then the supernatant was removed and 200 µL DMSO was added to dissolve the crystal. Mix each sample again using a pipette and read absorbance at 570 nm (the values are averages of triplicate). The value of the DMSO group is 100% to represent that the cell viability is 100%.

Row | Structure (SMILES) | viability at 48 h
1 | C=CCOc1ccc(/C=C/C(=O)c2sccc2N)c(OCC=C)c1 [Compound 40] | 80 to 120%
2 | CC(=O)Oc1ccccc1C(=O)N(C(=O)c1ccccc1OC(C)=O)c1ccc(/C=C/C(=O)O)cc1 [Compound 15] | 80 to 120%
3 | COC(=O)/C=C/c1ccc(O)c(O)c1 [Compound 18] | 80 to 120%
4 | O=C(/C=C/c1ccccn1)c1ccccn1 [Compound 43] | 80 to 120%
5 | O=C(O)/C=C/c1ccc(OC(=O)CCCC(=O)O)c(OC(=O)CCCC(=O)O)c1 [Compound 3] | 80 to 120%
6 | COC(=O)/C=C/C(=O)Nc1ccc(/C=C/C(=O)O)cc1 [Compound 14] | 80 to 120%
7 | O=C(O)/C=C/c1ccc(O)cc1O [Compound 24] | 80 to 120%
8 | CC(=O)Oc1ccccc1C(=O)Oc1ccc(/C=C/C(=O)O)cc1 [Compound 7] | 80 to 120%
9 | O=C(O)/C=C/c1ccc(OC(=O)CCCCC(=O)O)cc1 [Compound 4] | 80 to 120%
10 | O=C(/C=C/c1ccc2c(c1)OCO2)Nc1ccc(O)cc1 [Compound 34] | 80 to 120%
11 | COC(=O)/C=C/c1ccccc1 [Compound 17] | 80 to 120%
12 | O=C(O)/C=C/c1ccncc1 [Compound 36] | 80 to 120%
13 | COC(=O)CCCCC(=O)Oc1ccc(/C=C/C(=O)O)cc1OC(=O)CCCCC(=O)OC [Compound 6] | 80 to 120%
14 | O=C(O)/C=C/c1ccc(OC(=O)Cc2cccc(Cl)c2)cc1 [Compound 9] | 80 to 120%
15 | Cc1ccc(/C=C/C(=O)c2cccc(NC(=O)/C=C/c3ccc4c(c3)OCO4)c2)s1 [Compound 35] | 80 to 120%
16 | CC(=O)Oc1ccccc1C(=O)Oc1ccc(/C=C/C(=O)O)cc1O [Compound 8] | 80 to 120%
17 | O=C(/C=C/c1ccc2c(c1)OCO2)n1cccc1 [Compound 42] | 80 to 120%
18 | O=C(O)/C=C/c1ccsc1 [Compound 39] | 80 to 120%
19 | O=C(O)/C=C/c1ccc(NC(=O)CCCC(=O)O)cc1 [Compound 13] | 80 to 120%

Row | Structure (SMILES) | viability at 48 h
20 | O=C(O)/C=C/c1cccnc1 [Compound 37] | 80 to 120%
21 | O=C(/C=C/c1ccccc1)OCc1ccc(O)cc1 [Compound 21] | 80 to 120%
22 | CC(=O)C(=O)Oc1ccc(/C=C/C(=O)O)cc1 [Compound 27] | 80 to 120%
23 | O=C(O)/C=C/C(=O)Nc1ccc(/C=C/C(=O)O)cc1 [Compound 32] | 80 to 120%
24 | Cc1ccc(/C=C/C(=O)c2sc(N)nc2C)s1 [Compound 44] | 80 to 120%
25 | O=C(O)/C=C/c1ccc(NC(=O)c2ccccc2O)cc1 [Compound 33] | 80 to 120%
26 | COC(=O)/C=C/c1ccc(OC(=O)Cc2cccc(Cl)c2)c(OC(=O)Cc2cccc(Cl)c2)c1 [Compound 11] | 80 to 120%
27 | COC(=O)CCCCC(=O)Oc1ccc(/C=C/C(=O)O)cc1 [Compound 5] | 80 to 120%
28 | O=C(O)/C=C/c1cccs1 [Compound 38] | 80 to 120%
29 | O=C(/C=C/c1ccsc1)c1ccc(O)cc1 [Compound 41] | 80 to 120%
30 | CC(C)(C)OC(=O)NCCCC(=O)Oc1ccc(/C=C/C(=O)O)cc1OC(=O)CCCNC(=O)OC(C)(C)C [Compound 12] | 80 to 120%
31 | O=C(O)/C=C/c1ccc(OC(=O)CCCC(=O)O)cc1 [Compound 1] | 80 to 120%
32 | Nc1ccc(/C=C/C(=O)O)cc1 [Compound 31] | 80 to 120%
33 | O=C(/C=C/c1ccc(O)c(O)c1)O[C@H](Cc1ccc(O)c(O)c1)C(=O)O [Compound 46] | 80 to 120%
34 | O=C(O)/C=C/c1ccc(OC(=O)Cc2cccc(Cl)c2)c(OC(=O)Cc2cccc(Cl)c2)c1 [Compound 10] | 80 to 120%
35 | O=C(O)/C=C/c1ccc(OC(=O)c2cccnc2)cc1 [Compound 30] | 80 to 120%
36 | CC(=O)Oc1ccc(/C=C/C(=O)O)cc1 [Compound 28] | 80 to 120%
37 | COC(=O)/C=C/c1ccc(OC(=O)c2ccccc2OC(C)=O)c(OC(=O)c2ccccc2OC(C)=O)c1 [Compound 29] | 80 to 120%
38 | O=C(O)/C=C/c1ccc(OC(=O)CCCC(=O)O)c(O)c1 [Compound 2] | 80 to 120%
